Values of other authors as cited in patent publication US20160007613A1, “Clonostachys rosea Inoculated Plant Materials with Fungicides and Adjuvants” (priority 2014, published 2016).

System: Clonostachys rosea ACM941
Settings: research by Sutton and Brown; in words

SMILES | toxicity to Clonostachys rosea ACM941
COCC(=O)N(c1c(C)cccc1C)C(C)C(=O)OC (centres unmarked) [metalaxyl] | not metalaxyl is toxic
CN(C)C(=S)SSC(=S)N(C)C [thiram] | toxic
